Assay results reported in BindingDB's records for PubMed 35124530 (Tsinghua University, 2022).
pIC50: −log10 of the molar value.

Test: Antagonist activity at CXCR4 receptor in human SUP-T1 cells assessed as reduction in SDF-1alpha-stimulated cell migration and measured by CellTiter-96 assay

Question: With N=C(N)NCCC[C@H](NCc1ccccn1)C(=O)NCc1ccc(CNCCCNC2CCCCC2)cc1 as the compound, how does the pIC50 read?
Answer: 6.63
